Data on 2 molecules can be found in ChEMBL document CHEMBL1201862, “PubChem BioAssay data set” (2004).

Structures are written as SMILES.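 All cell lines were grown in 96-well plates and treated with compound for 48 hours. GI50: concentration for 50% inhibition of growth.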 Calls of active or inactive are those of the source. No stated cut-off is given here; in the data, active = GI50 up to about 1.1 µM and inactive = higher. Some results are limits rather than exact numbers.

Among the test systems are A498; ACHN; CAKI-1; DMS-114; HCT-116; HCT-15; HOP-92; K562; KM12; LXFL 529; M19-MEL; NCI-H23; SF-295; SK-MEL-2; SK-MEL-5; SN12C; SNB-19; U-251.
Experiment in all cases: inhibition of tumour cell growth, NCI panel, 48 h

`CCOC(=O)C1=C(NC(C)(C)C)OC/C1=N\NC(=O)Cc1ccccc1`: the GI50 with A498 is > 100 µM (inactive); with ACHN it was > 100 µM (inactive); with CAKI-1 it was > 100 µM (inactive); in the test with DMS-114, > 100 µM (inactive); in the test on HCT-116, > 100 µM (inactive); in the test on HCT-15, > 100 µM. The GI50 in the test with HOP-92, in the test on K562, in the test on KM12, in the test on LXFL 529, with M19-MEL and in the test on NCI-H23 was > 100 µM (inactive) throughout. The GI50 with SF-295, in the test with SK-MEL-2, in the test on SK-MEL-5, in the test with SN12C, with SNB-19 and in the test on U-251 was > 100 µM (inactive) throughout.
For `CCOC(=O)CC(NCc1ccc(/N=C/c2nc3ccc(C(F)(F)F)cc3nc2-c2ccccc2)cc1)C(=O)OCC` (stereo unspecified), the GI50 with A498 was > 61.1 µM (inactive); with ACHN, > 58.6 µM (inactive); in the test with CAKI-1, > 100 µM (inactive); in the test with DMS-114 it was > 68.5 µM (inactive); with HCT-116 it was > 55.5 µM (inactive); in the test on HCT-15, > 100 µM. Moreover, the GI50 was > 100 µM (inactive) in the test with HOP-92; > 100 µM (inactive) with K562; > 100 µM (inactive) in the test with KM12; > 100 µM (inactive) in the test on LXFL 529; > 100 µM (inactive) in the test with M19-MEL; > 57.3 µM (inactive) in the test with NCI-H23. Also, the GI50 was 27.2 µM (inactive) in the test on SF-295; > 47.3 µM (inactive) in the test on SK-MEL-2; > 78.7 µM (inactive) in the test on SK-MEL-5; > 100 µM (inactive) with SN12C; 27.9 µM (inactive) with SNB-19; 21.8 µM (inactive) in the test with U-251.
